{"source": "ChEMBL document CHEMBL2439992", "about": "“Fused 3-Hydroxy-3-trifluoromethylpyrazoles Inhibit Mutant Huntingtin Toxicity” (ACS Med Chem Lett, 2013)", "key": {"Mus musculus [1]": {"tested_on": "Mus musculus", "test": "Antihuntington's disease activity in R6/2 transgenic mouse assessed as decrease in body weight at 10 to 30 mg/kg, po qd", "format": "functional, organism-based"}, "[2]": {"test": "Permeability of the compound from apical to basolateral side of MDCK cells expressing MDR1 after 120 mins", "format": "ADME, cell-based, Canis lupus familiaris", "conditions": "dog, read-out: permeability"}, "PC-12 [3]": {"tested_on": "PC-12", "test": "Inhibition of GFP tagged-exon-1 fragment of huntingtin 74Q mutant (unknown origin) expressed in rat PC12 cells assessed as protection against doxycycline-induced cell death after 72 hrs by LDH release assay", "format": "cell-based", "conditions": "Homo sapiens"}, "Cytochrome P450 3A4 [4]": {"target": "T1, Cytochrome P450 3A4 (Homo sapiens, UniProt P08684)", "T1 sequence (P08684 whole entry)": "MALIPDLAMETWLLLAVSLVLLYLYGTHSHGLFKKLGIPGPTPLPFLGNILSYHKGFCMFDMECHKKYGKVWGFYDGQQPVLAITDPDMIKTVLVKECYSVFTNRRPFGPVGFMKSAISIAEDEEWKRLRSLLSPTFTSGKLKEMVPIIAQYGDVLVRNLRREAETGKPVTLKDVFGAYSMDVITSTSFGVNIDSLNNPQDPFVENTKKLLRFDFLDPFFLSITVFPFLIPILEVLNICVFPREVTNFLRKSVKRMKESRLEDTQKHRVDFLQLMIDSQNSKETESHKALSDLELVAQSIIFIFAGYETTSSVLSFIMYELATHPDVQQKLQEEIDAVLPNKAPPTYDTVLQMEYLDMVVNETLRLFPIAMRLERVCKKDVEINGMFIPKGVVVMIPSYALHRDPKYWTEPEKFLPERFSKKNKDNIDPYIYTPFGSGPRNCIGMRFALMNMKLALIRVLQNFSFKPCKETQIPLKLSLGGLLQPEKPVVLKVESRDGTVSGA", "test": "Inhibition of CYP3A4 (unknown origin) using nifedipine as substrate", "format": "ADME"}, "[5]": {"test": "Cytotoxicity in Sprague-Dawley rat striatal neurons", "format": "cell-based", "conditions": "neuron"}, "Cytochrome P450 3A4 [6]": {"target": "T1, Cytochrome P450 3A4", "test": "Inhibition of CYP3A4 (unknown origin) using testosterone as substrate", "format": "ADME"}, "Mus musculus [7]": {"tested_on": "Mus musculus", "test": "Antihuntington's disease activity in R6/2 transgenic mouse assessed as prevention of ventricular volume enlargment at 3 to 30 mg/kg, po qd measured after 8 weeks", "format": "functional, organism-based"}, "[8]": {"test": "Kinetic solubility of the compound at pH 7.4", "format": "physicochemical", "conditions": "buffer, read-out: Kinetic_solubility"}, "Rattus norvegicus": {"organism": "Rattus norvegicus", "test": "Inhibition of huntingtin 171-82Q mutant-mediated cell death in Sprague-Dawley rat striatal neurons at 10 to 30 uM by NeuN-positive cell counting assay"}, "Mus musculus [9]": {"tested_on": "Mus musculus", "test": "Ex vivo antihuntington's disease activity in R6/2 transgenic mouse assessed as decrease of cerebral ventricles size at 3 to 30 mg/kg, po qd measured after 8 weeks by MRI analysis", "format": "functional, organism-based"}, "Cytochrome P450 2D6": {"target": "Cytochrome P450 2D6 (Homo sapiens, UniProt P10635)", "sequence (P10635 whole entry)": "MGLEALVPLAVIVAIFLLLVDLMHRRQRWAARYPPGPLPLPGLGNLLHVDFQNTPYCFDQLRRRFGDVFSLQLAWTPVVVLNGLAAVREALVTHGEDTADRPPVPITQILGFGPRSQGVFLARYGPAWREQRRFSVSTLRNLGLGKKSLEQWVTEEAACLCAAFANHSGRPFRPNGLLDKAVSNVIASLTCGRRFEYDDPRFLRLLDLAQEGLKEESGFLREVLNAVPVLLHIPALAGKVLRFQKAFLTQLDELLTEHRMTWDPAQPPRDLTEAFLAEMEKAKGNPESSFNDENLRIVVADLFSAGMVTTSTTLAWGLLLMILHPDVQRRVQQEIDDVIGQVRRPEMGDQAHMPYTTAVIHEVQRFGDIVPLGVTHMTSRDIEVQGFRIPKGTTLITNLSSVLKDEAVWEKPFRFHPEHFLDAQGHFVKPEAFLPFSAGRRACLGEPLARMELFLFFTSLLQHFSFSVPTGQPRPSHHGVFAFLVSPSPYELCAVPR", "test": "Inhibition of CYP2D6 (unknown origin)", "format": "ADME"}, "[10]": {"test": "Stability of the compound at pH 3 to 7.4 assessed as dehydration", "format": "physicochemical", "conditions": "buffer"}, "[11]": {"target": "Voltage-gated inwardly rectifying potassium channel KCNH2 (Homo sapiens, UniProt Q12809)", "test": "Inhibition of human ERG up to 100 uM"}, "Mus musculus [12]": {"tested_on": "Mus musculus", "test": "Toxicity in R6/2 transgenic mouse assessed as motor impairment at 1 to 30 mg/kg, po qd", "format": "organism-based", "parameters": "dose 1-30 mg/kg, route oral", "conditions": "in vivo"}, "Mus musculus [13]": {"tested_on": "Mus musculus", "test": "Antihuntington's disease activity in R6/2 transgenic mouse assessed as decrease of cerebral ventricles size at 3 to 30 mg/kg, po qd measured after 8 weeks", "format": "functional, organism-based"}, "[14]": {"test": "Inhibition of full-length huntingtin Q138 mutant (unknown origin) expressed in human T-RexTM-293 cells co-expressing CRE-Luc assessed as decrease of CREB-mediated transcription after 72 hrs by luciferase reporter gene based luminescence assay", "format": "cell-based", "conditions": "HEK293, 72 h"}, "[15]": {"test": "Intrinsic clearance in human liver microsomes at 1 uM in presence of NADPH", "format": "ADME, Microsome", "conditions": "read-out: CLH"}, "MDCK": {"tested_on": "MDCK", "test": "Efflux ratio of permeability […] in MDCK cells expressing MDR1 after 120 mins", "format": "ADME, cell-based, Canis lupus familiaris", "conditions": "dog, 2 h"}, "Cytochrome P450 1A2": {"target": "T2, Cytochrome P450 1A2 (Homo sapiens, UniProt P05177)", "T2 sequence (P05177 whole entry)": "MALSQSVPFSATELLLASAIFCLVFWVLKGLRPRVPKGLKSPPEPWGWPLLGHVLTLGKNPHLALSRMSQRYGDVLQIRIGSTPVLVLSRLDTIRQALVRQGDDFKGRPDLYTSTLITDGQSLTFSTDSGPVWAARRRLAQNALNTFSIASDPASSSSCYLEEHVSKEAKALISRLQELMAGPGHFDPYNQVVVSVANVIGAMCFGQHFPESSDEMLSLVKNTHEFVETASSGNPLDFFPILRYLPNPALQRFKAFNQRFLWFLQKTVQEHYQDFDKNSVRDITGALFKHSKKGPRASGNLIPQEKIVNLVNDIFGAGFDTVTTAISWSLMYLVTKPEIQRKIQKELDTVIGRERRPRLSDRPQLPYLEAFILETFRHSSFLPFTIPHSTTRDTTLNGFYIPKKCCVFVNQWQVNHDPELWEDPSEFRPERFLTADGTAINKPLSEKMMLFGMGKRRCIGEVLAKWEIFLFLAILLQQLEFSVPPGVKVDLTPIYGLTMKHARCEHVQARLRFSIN", "test": "Inhibition of CYP1A2 (unknown origin)", "format": "ADME"}, "Cytochrome P450 2C19": {"target": "Cytochrome P450 2C19 (Homo sapiens, UniProt P33261)", "sequence (P33261 whole entry)": "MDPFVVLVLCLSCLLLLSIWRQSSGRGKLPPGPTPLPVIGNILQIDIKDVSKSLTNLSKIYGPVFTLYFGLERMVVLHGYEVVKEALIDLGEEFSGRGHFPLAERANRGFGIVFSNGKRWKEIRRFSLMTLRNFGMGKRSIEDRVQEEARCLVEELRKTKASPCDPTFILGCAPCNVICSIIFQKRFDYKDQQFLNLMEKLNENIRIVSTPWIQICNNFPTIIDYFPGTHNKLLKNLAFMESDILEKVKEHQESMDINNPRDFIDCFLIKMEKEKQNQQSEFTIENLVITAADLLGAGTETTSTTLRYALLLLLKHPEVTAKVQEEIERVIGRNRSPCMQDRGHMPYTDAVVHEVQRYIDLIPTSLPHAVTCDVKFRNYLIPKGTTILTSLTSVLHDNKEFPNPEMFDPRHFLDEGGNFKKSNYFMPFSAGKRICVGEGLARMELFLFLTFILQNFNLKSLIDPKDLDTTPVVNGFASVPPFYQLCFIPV", "test": "Inhibition of CYP2C19 (unknown origin)", "format": "ADME"}, "HEK293": {"tested_on": "HEK293", "test": "Inhibition of full-length huntingtin Q138 mutant (unknown origin) expressed in human T-RexTM-293 cells co-expressing CRE-Luc assessed as decrease of CREB-mediated transcription after 72 hrs by luciferase reporter gene based luminescence assay relative to control", "format": "cell-based"}, "PC-12 [16]": {"tested_on": "PC-12", "test": "Cytoprotective activity in rat PC12 cells after 72 hrs by LDH release assay", "format": "ADME, cell-based", "conditions": "pc-12, 72 h"}, "Mus musculus [17]": {"tested_on": "Mus musculus", "test": "Toxicity in R6/2 transgenic mouse assessed as mortality at 1 to 30 mg/kg, po qd", "format": "organism-based", "parameters": "dose 1-30 mg/kg, route oral", "conditions": "in vivo"}, "Salmonella typhimurium": {"tested_on": "Salmonella typhimurium", "test": "Genotoxicity in Salmonella typhimurium by Ames test", "format": "toxicity, organism-based", "conditions": "salmonella enterica subsp. enterica serovar typhimurium"}, "[18]": {"test": "Ratio of drug level in brain to plasma in CD1 mouse at 5 mg/kg, po and iv", "format": "ADME, organism-based", "parameters": "dose 5 mg/kg, route oral", "conditions": "read-out: BPR"}, "[19]": {"target": "Huntingtin (Rattus norvegicus) (UniProt P51111)", "sequence (P51111 whole entry)": "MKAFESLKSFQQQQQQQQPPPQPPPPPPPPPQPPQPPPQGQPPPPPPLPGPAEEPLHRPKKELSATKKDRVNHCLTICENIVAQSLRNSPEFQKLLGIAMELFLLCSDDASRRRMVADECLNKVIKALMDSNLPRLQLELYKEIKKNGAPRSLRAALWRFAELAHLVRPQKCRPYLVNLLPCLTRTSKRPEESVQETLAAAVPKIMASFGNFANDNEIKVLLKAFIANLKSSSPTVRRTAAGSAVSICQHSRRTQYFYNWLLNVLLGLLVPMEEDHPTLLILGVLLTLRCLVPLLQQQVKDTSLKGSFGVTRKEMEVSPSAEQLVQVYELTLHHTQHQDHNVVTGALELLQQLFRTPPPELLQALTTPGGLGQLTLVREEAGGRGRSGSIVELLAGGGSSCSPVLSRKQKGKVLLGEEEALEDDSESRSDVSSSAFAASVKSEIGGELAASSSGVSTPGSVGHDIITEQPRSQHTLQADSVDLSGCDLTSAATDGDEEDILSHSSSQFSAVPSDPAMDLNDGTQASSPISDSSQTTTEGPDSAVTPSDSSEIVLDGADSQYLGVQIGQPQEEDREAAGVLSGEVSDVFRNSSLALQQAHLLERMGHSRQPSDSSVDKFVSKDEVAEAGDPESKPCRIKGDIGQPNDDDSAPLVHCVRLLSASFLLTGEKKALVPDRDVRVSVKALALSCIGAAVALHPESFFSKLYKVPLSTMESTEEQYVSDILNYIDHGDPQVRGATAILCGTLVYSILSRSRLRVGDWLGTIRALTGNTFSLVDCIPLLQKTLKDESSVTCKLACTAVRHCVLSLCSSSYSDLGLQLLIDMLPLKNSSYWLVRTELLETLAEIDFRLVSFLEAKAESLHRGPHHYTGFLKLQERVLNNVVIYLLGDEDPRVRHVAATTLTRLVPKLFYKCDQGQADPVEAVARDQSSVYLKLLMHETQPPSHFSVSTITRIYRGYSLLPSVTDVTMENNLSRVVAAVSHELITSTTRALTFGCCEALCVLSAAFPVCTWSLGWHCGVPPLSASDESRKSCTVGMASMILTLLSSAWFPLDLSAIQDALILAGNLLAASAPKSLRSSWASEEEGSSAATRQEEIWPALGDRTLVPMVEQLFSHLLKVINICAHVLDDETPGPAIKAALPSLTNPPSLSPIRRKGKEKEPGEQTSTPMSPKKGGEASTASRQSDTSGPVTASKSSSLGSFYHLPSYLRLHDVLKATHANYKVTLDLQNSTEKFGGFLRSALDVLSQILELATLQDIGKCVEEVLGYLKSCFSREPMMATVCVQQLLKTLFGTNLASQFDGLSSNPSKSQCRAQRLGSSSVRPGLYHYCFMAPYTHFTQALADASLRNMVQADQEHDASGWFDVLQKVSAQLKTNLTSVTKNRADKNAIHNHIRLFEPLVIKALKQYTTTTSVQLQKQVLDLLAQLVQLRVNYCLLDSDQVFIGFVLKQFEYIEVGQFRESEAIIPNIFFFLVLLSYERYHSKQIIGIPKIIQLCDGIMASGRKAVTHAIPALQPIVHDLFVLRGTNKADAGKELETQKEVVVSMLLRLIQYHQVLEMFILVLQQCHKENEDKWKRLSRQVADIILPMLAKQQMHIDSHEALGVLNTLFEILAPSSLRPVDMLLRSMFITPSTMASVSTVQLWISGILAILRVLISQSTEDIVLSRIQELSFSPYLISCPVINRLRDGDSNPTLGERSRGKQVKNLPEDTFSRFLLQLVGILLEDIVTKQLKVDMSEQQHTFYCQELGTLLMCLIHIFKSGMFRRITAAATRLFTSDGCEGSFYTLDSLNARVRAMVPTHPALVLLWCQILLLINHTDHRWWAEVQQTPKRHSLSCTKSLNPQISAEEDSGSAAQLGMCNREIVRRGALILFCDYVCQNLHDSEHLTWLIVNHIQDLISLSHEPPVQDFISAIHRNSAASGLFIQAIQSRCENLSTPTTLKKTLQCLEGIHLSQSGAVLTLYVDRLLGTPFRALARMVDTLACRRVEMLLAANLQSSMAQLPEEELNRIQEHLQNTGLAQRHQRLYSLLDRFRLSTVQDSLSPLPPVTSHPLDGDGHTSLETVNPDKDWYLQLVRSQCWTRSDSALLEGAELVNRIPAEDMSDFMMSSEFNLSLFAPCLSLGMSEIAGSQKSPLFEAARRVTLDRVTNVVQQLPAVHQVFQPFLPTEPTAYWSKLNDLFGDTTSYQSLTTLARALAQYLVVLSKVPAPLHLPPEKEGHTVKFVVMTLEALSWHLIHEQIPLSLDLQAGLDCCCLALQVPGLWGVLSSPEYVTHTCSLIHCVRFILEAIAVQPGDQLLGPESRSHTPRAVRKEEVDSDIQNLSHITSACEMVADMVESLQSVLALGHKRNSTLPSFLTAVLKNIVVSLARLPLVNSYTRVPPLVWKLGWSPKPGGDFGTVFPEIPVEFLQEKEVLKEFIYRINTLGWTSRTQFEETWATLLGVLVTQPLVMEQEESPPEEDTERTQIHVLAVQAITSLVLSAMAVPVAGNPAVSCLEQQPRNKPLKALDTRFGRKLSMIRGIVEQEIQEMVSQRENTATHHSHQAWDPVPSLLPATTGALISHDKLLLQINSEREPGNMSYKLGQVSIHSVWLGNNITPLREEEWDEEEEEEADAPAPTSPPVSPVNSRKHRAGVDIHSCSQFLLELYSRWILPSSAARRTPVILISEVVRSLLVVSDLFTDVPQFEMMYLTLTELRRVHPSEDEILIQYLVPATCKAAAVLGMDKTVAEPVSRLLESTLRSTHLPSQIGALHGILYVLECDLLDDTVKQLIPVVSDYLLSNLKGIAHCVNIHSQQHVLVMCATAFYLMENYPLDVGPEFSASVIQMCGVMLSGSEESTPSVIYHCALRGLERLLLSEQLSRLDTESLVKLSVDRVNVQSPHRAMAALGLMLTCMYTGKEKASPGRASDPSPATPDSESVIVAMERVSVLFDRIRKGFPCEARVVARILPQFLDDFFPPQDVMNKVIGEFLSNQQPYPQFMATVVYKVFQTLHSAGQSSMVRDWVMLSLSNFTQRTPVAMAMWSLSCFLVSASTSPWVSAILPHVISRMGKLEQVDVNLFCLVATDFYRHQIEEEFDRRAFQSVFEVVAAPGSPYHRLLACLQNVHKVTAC", "test": "Inhibition of wild type huntingtin 171-18Q-mediated cell death in Sprague-Dawley rat striatal neurons at 1 to 30 uM by NeuN-positive cell counting assay"}, "Cytochrome P450 2C9": {"target": "Cytochrome P450 2C9 (Homo sapiens, UniProt P11712)", "sequence (P11712 whole entry)": "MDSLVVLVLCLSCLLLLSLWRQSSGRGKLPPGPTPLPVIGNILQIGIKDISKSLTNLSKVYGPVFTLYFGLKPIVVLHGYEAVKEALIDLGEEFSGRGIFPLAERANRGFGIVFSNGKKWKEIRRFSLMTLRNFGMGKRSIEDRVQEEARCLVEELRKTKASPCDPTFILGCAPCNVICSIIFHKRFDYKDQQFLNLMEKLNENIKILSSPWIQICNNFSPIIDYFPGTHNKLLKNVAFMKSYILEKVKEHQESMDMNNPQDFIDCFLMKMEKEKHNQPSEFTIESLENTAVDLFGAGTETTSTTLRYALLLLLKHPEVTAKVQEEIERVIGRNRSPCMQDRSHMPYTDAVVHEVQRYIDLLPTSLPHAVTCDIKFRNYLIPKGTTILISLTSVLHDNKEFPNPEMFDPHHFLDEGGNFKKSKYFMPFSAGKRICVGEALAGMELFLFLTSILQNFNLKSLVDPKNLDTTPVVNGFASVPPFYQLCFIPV", "test": "Inhibition of CYP2C9 (unknown origin)", "format": "ADME"}, "[20]": {"test": "Intrinsic clearance in mouse liver microsomes at 1 uM in presence of NADPH", "format": "ADME, Microsome", "conditions": "read-out: CLH"}}, "note": "Activity calls are given as the source filed them. The calls are words filed in the database; no cut-off is given here."}
{"molecule": "Nc1nc(C(=O)N2N=C3CCCC[C@@H]3[C@@]2(O)C(F)(F)F)cs1", "note": "(racemic)", "values": [{"measurement": "Activity", "setting": "Mus musculus [1]", "value": "Active"}, {"measurement": "Papp A→B at 2 h", "setting": "[2]", "value": 31, "unit": "×10⁻⁶ cm/s"}, {"measurement": "inhibition", "setting": "PC-12 [3]", "value": "Active"}, {"measurement": "INH", "setting": "Cytochrome P450 3A4 [4]", "value": "> 30", "unit": "µM"}, {"measurement": "Activity", "setting": "[5]", "value": "Non-toxic"}, {"measurement": "INH", "setting": "Cytochrome P450 3A4 [6]", "value": "> 30", "unit": "µM"}, {"measurement": "Activity", "setting": "Mus musculus [7]", "value": "Active"}, {"measurement": "solubility kinetic", "setting": "[8]", "value": 96, "unit": "µM"}, {"measurement": "inhibition", "setting": "Rattus norvegicus", "value": "Active"}, {"measurement": "Activity", "setting": "Mus musculus [9]", "value": "Active"}, {"measurement": "INH", "setting": "Cytochrome P450 2D6", "value": "> 30", "unit": "µM"}, {"measurement": "Stability", "setting": "[10]", "value": "Stable"}, {"measurement": "inhibition (INH)", "setting": "[11]", "value": "Not Active"}, {"measurement": "Activity", "setting": "Mus musculus [12]", "value": "Non-toxic"}, {"measurement": "Activity", "setting": "Mus musculus [13]", "value": "Active"}, {"measurement": "EC50", "setting": "[14]", "value": 1800, "unit": "nM"}, {"measurement": "microsomal CLint at 1 µM", "setting": "[15]", "value": 13.6, "unit": "µL/min/mg"}, {"measurement": "Ratio", "setting": "MDCK", "value": 1.1}, {"measurement": "INH", "setting": "Cytochrome P450 1A2", "value": "> 30", "unit": "µM"}, {"measurement": "INH", "setting": "Cytochrome P450 2C19", "value": 24.4, "unit": "µM"}, {"measurement": "Emax", "setting": "HEK293", "value": 44, "unit": "%"}, {"measurement": "Activity", "setting": "PC-12 [16]", "value": "Non-toxic"}, {"measurement": "Activity", "setting": "Mus musculus [17]", "value": "Non-toxic"}, {"measurement": "Activity", "setting": "Salmonella typhimurium", "value": "Non-toxic"}, {"measurement": "Kp", "setting": "[18]", "value": 0.34}, {"measurement": "inhibition", "setting": "[19]", "value": "Active"}, {"measurement": "INH", "setting": "Cytochrome P450 2C9", "value": "> 30", "unit": "µM"}, {"measurement": "microsomal CLint at 1 µM", "setting": "[20]", "value": 27.6, "unit": "µL/min/mg"}]}
